Laboratory results reported in US6455593B1, “Method of dynamic retardation of cell cycle kinetics to potentiate cell damage” (priority 1995, dated 2002).
Like-named read-outs stand apart in the source and are kept apart here.

Key:
U937 cells = assay: DNA gel electrophoresis for DNA fragmentation (apoptosis); format: cell-based, human; conditions: 50 nM STSP, 8 hours, U937
Description: Samples of the U937 cells were exposed to a series of concentrations of dThd for 24 hr. Their DNA was isolated by lysis of cell samples in TE buffer containing TRIS 10 mM, EDTA 10 mM, SDS 0.5% and proteinase K 200 μg/ml at […] for 2 h. The proteins were precipitated in a IM solution of NaCl and centrifuged at 2,500×g for 30 min at […] DNAse free RNase (25 μg/ml) was added to the supernatant and incubated for 30 min at 37° C. Spectrophotometric quantitation of the DNA in the supernatant was quantitated by absorbance spectrophotometry at 260 nm. Volumes adjusted to contain equal amounts of DNA were mixed with a loading buffer of 40% (w/v) sucrose, 0.1M EDTA pH 8.0, 0.5% (w/v) sodium lauryl sulphate and 0.05% (w/v) bromophenol blue. […] Separated bands of DNA were stained with ethidium bromide and photographed in UV light (Fotodyne Inc.). […] The lowest molecular weight (about 180 bp) was determined with a standard 123 bp ladder from Sigma Chemical Co. (Cat. #D5042). The result shown is a classical “DNA ladder,” characteristic of the fragmentation of DNA macromolecules in apoptosis. See Tomei, supra; Obeid, supra; Gold, supra.

[1] = test system: human promonocytic lymphoma cells (U937); assay: Microculture indicator system (MIS), MTT growth inhibition assay with bivariate serial dilutions; format: cell-based; conditions: for inhibition at 0.01 µg/mL / inhibition at 0.02 µg/mL / inhibition at 0.03 µg/mL / inhibition at 0.06 µg/mL / inhibition at 0.5 µg/mL / inhibition at 1 µg/mL / inhibition at 2 µg/mL / inhibition at 4 µg/mL: Homo sapiens
Description: Microcultures of human promonocytic lymphoma cells (U937) (“the U937 cells”) originally obtained from the American Type Culture Collection (CRL 1593) and later grown by Dr. K. Zoon at the FDA in Bethesda, Md. were set up in a multiwell plate with serial two-fold dilutions of dThd in tissue culture growth medium (RPMI 1640 plus 10% Nurserum and antibiotics). The volume of medium per well was 100 μl and the cell number per well was about 1×10^5. The plate was incubated at 37° C. for 24 hr.
A dye, 3-[4,5-dimethylthiazol-2-yl]-2,5-diphenyl-tetrazolium bromide (MTT), was used as a chromogenic indicator of the metabolically active cell mass. Viable cells metabolize the dye and accumulate a reduced formazan product (blue color) which is solubilized for colorimetry. Mossman T, J. Immunol. Methods 5:55-63 (1983); Li L and Lau B H S, In Vitro Cell Dev. Biol. 29A:531-536 (1993). The MTT assay has been established as useful for measuring either growth inhibition or population killing. Plowman, supra. The MTT method is ideal for cells tested in suspension growth, and can also be used for some cells growing in monolayers. […] Alley, supra; Hofs, supra; Wilson J K et al., Br. J. Cancer 62:189-94 (1990); Plowman, supra.
Thirty μl of 0.5% MTT in phosphate buffered saline was added to each microculture well at the appropriate time. After incubation at 37° C. for 3 hr, 120 μl of an aqueous solution of 10 % SDS with 0.01 N HCl was added to release and dissolve formazan product. This was accomplished by overnight incubation of the plate at 37° C. After careful mixing of the microwell contents by placing the plates on an orbital shaker for 5 minutes the absorbencies were quantitated by spectrophotometry at 570 nm with a Ceres UV 900 HDI microwell plate reader (from Biotek Instruments Inc, Winooski, Vt. 05404-0998). Absorbance data was normalized to a blank well containing all reagents without cells and was collected semi-automatically.
Flat-bottom 96-well plates of tissue culture quality (Corning or Costar) were set up with two-fold serial dilutions of each agent to be tested, e.g., the RA and TCI, using a multichannel pipettor with adjustable volume, e.g., Costar or Rainin, to perform serial mixing. This set-up is diagrammed in FIG. 12. […] In each plate, a total of 59 wells then contained bivariate agent combinations, the bivariate serial dilutions.
Agents were serially diluted by serial mixing in two separate plates or series of wells, and then were combined prior to addition of a fixed volume and density of the U937 cells in a suspension calculated to deliver about 1×10^5 cells per well.
Cells were added after serial dilutions of the dThd had been dispensed. Cells were dispensed at about 10×10^4 cells per microwell to provide optimal sensitivity of detection of cell damage in subsequent calorimetric assays. […] The final volume of medium was 100 μl/well. The plates were further incubated at 37° C. for a total duration of 18-24 h. The dye MTT was used as a chromogenic indicator of the residual and metabolically active cell mass. (Described in Example 1).
In this MTT assay, normalized absorbance data was collected semi-automatically from each microculture well with a Ceres UV 900 HD1 plate reader, from Biotek Instruments Inc., Winooski, V T 05404-0998, stored in an EIA file under the Ceres 900 program, transferred in comma delimited format to a floppy diskette, and imported into a spread sheet program (Borland Quattro Pro) for data manipulations.

## CN[C@@H]1C[C@H]2O[C@@](C)([C@@H]1OC)n1c3ccccc3c3c4c(c5c6ccccc6n2c5c31)C(=O)NC4 [STSP, staurosporine]
U937 cells
  DNA ladder pattern fragmentation: DNA fragmentation in U937 cells in 8 hours

## C[C@@]1(CO)[C@H](O)CC[C@@]2(C)[C@H]1CC[C@H]1C[C@@H]3C[C@@]12CC[C@]3(O)CO [Aph, aphidicolin]
[1]; U-937, 4 h, U937, Aph 0.01 ug/ml 4 H, K252a 0, read-out: MTT % inhibition, Aph only
  inhibition at 0.01 µg/mL: 5%
[1]; U-937, 4 h, U937, Aph 0.02 ug/ml 4 H, K252a 0, read-out: MTT % inhibition, Aph only
  inhibition at 0.02 µg/mL: 0%
[1]; U-937, 4 h, U937, Aph 0.03 ug/ml 4 H, K252a 0, read-out: MTT % inhibition, Aph only
  inhibition at 0.03 µg/mL: 1%
[1]; U-937, 4 h, U937, Aph 0.06 ug/ml 4 H, K252a 0, read-out: MTT % inhibition, Aph only
  inhibition at 0.06 µg/mL: 14%
[1]; U-937, 4 h, U937, Aph 0.50 ug/ml 4 H, K252a 0, read-out: MTT % inhibition, Aph only
  inhibition at 0.5 µg/mL: 9%
[1]; U-937, 4 h, U937, Aph 1.00 ug/ml 4 H, K252a 0, read-out: MTT % inhibition, Aph only
  inhibition at 1 µg/mL: 14%
[1]; U-937, 4 h, U937, Aph 2.00 ug/ml 4 H, K252a 0, read-out: MTT % inhibition, Aph only
  inhibition at 2 µg/mL: 24%
[1]; U-937, 4 h, U937, Aph 4.00 ug/ml 4 H, K252a 0, read-out: MTT % inhibition, Aph only
  inhibition at 4 µg/mL: 38%
[1]; U-937, U937, total 18 H, STSP 14 H, Aph 4 H, Aph 0.01 ug/ml, STSP nM by row: r7 100, r8 50, r9 25, r10 12.5, r11 6.25, r12 3.13, r13-r14 0, read-out: Growth inhibition (MTT)
  inhibition at 0.01 µg/mL: 1%
[1]; U-937, U937, total 18 H, STSP 14 H, Aph 4 H, Aph 0.02 ug/ml, STSP nM by row: r7 100, r8 50, r9 25, r10 12.5, r11 6.25, r12 3.13, r13-r14 0, read-out: Growth inhibition (MTT)
  inhibition at 0.02 µg/mL: 7%
[1]; U-937, U937, total 18 H, STSP 14 H, Aph 4 H, Aph 0.03 ug/ml, STSP nM by row: r7 100, r8 50, r9 25, r10 12.5, r11 6.25, r12 3.13, r13-r14 0, read-out: Growth inhibition (MTT)
  inhibition at 0.03 µg/mL: 6%
[1]; U-937, U937, total 18 H, STSP 14 H, Aph 4 H, Aph 0.06 ug/ml, STSP nM by row: r7 100, r8 50, r9 25, r10 12.5, r11 6.25, r12 3.13, r13-r14 0, read-out: Growth inhibition (MTT)
  inhibition at 0.06 µg/mL: 9%
[1]; U-937, U937, total 18 H, STSP 14 H, Aph 4 H, Aph 0.50 ug/ml, STSP nM by row: r7 100, r8 50, r9 25, r10 12.5, r11 6.25, r12 3.13, r13-r14 0, read-out: Growth inhibition (MTT)
  inhibition at 0.5 µg/mL: 21%
[1]; U-937, U937, total 18 H, STSP 14 H, Aph 4 H, Aph 1.00 ug/ml, STSP nM by row: r7 100, r8 50, r9 25, r10 12.5, r11 6.25, r12 3.13, r13-r14 0, read-out: Growth inhibition (MTT)
  inhibition at 1 µg/mL: 22%
[1]; U-937, U937, total 18 H, STSP 14 H, Aph 4 H, Aph 2.00 ug/ml, STSP nM by row: r7 100, r8 50, r9 25, r10 12.5, r11 6.25, r12 3.13, r13-r14 0, read-out: Growth inhibition (MTT)
  inhibition at 2 µg/mL: 31%
[1]; U-937, U937, total 18 H, STSP 14 H, Aph 4 H, Aph 4.00 ug/ml, STSP nM by row: r7 100, r8 50, r9 25, r10 12.5, r11 6.25, r12 3.13, r13-r14 0, read-out: Growth inhibition (MTT)
  inhibition at 4 µg/mL: 30%
[1]; U937, concentrations less than IC40, STSP as the TCI
  Potentiation of DNA damage by STSP as RA: proved successful in potentiating DNA damage by STSP
[1]; U937, Aph alone, every Aph concentration 4.00-0.01 ug/ml
  combined results ratio, Aph only (baseline line): 1.0
[1]; U937, total 18 H, STSP 14 H, Aph 4 H, Aph 0.01 ug/ml, STSP nM by row: r7 100, r8 50, r9 25, r10 12.5, r11 6.25, r12 3.13, r13-r14 0
  Combined results ratio: 1.0
[1]; U937, total 18 H, STSP 14 H, Aph 4 H, Aph 0.02 ug/ml, STSP nM by row: r7 100, r8 50, r9 25, r10 12.5, r11 6.25, r12 3.13, r13-r14 0
  Combined results ratio: 1.0
[1]; U937, total 18 H, STSP 14 H, Aph 4 H, Aph 0.03 ug/ml, STSP nM by row: r7 100, r8 50, r9 25, r10 12.5, r11 6.25, r12 3.13, r13-r14 0
  Combined results ratio: 1.0
[1]; U937, total 18 H, STSP 14 H, Aph 4 H, Aph 0.06 ug/ml, STSP nM by row: r7 100, r8 50, r9 25, r10 12.5, r11 6.25, r12 3.13, r13-r14 0
  Combined results ratio: 1.0
[1]; U937, total 18 H, STSP 14 H, Aph 4 H, Aph 0.50 ug/ml, STSP nM by row: r7 100, r8 50, r9 25, r10 12.5, r11 6.25, r12 3.13, r13-r14 0
  Combined results ratio: 1.0
[1]; U937, total 18 H, STSP 14 H, Aph 4 H, Aph 1.00 ug/ml, STSP nM by row: r7 100, r8 50, r9 25, r10 12.5, r11 6.25, r12 3.13, r13-r14 0
  Combined results ratio: 1.0
[1]; U937, total 18 H, STSP 14 H, Aph 4 H, Aph 2.00 ug/ml, STSP nM by row: r7 100, r8 50, r9 25, r10 12.5, r11 6.25, r12 3.13, r13-r14 0
  Combined results ratio: 1.0
[1]; U937, total 18 H, STSP 14 H, Aph 4 H, Aph 4.00 ug/ml, STSP nM by row: r7 100, r8 50, r9 25, r10 12.5, r11 6.25, r12 3.13, r13-r14 0
  Combined results ratio: 1.0
